Source: patent US20060281806A1, “Treatment and inhibition of disease conditions using flexible heteroarotinoids” (priority 2005, published 2006)
Entries after “also recorded” stand apart in the source; their conditions may differ.

Key:
[1] = test system: ovarian carcinoma organotypic cultures; experiment: Organotypic culture model of ovarian tumors; type: cell-based, human; settings: 1 μM retinoid in media; 3, 7 or 14 days
Method: FIG. 17. Retinoid effects on ovarian carcinoma organotypic cultures. Organotypic cultures of OVCAR-3 (A, B, E, F, I and J), Caov-3 (C and G), SK-OV-3 (D and H), and O2 (K and L) were grown in the absence (−, top row and K) or presence (+, middle row and I, J and L) of retinoid HetA4 at a concentration of 1 μM in the media. All sections were stained with H&E except for I, which was stained with PAS to detect glycoproteins and glandular differentiantion, and J, which was stained with the TUNEL assay to detect apoptosis. All magnifications are 40×.
To test our hypotheses, we evaluated the effects of clinically achievable concentrations of 4-HPR and Flex-Hets on growth, differentiation and apoptosis in ovarian tissue. A series of compounds with a variety of receptor activation profiles were evaluated. In order to evaluate therapeutic effects, we developed an organotypic culture model of ovarian tumors by growing established cell lines and primary cultures inside collagen gels. Monolayer cultures of cells are not accurate representations of in vivo tissue because they lack the types of interactions that cells have with other cells and with the extracellular matrix in vivo. These interactions are known to influence gene expression and thus the constitution and behavior of cells. In our organotypic model, the growth of tumor cells inside the collagen allows a representation of tumors that have invaded stromal tissue. In the presence of fibroblasts, established cell lines and primary cultures of ovarian cancer formed colonies inside the collagen, while normal or benign ovarian epithelial cells remained as single cells inside the collagen. Human ovarian cancer cell lines (OVCAR-3, Caov-3, SK-OV-3, A2780, UCI 101) and primary human cultures (borderline ovarian tumor (O1), serous papillary tumor (O2), benign ovarian cyst (O3)) were cultured inside and on top of a collagen gel seeded with 3T3 fibroblasts for one week. After further incubation in the presence or absence of 1 μM retinoid (media concentration) for 3, 7 or 14 days, cultures were fixed and sectioned for immunohistochemical analysis.

[2] = women after breast cancer surgery; 200 mg per day for five years versus placebo; cited from earlier work
[3] = Alanine aminotransferase (ALT) activity in plasma of mice; type: in vivo, mouse; settings: end of treatment, 10 mg/kg/day by gavage
Method: At the end of the treatment period, blood was drawn from each animal. Plasma was separated by centrifugation and stored at −70° C. The activity of ALT was determined in aliquots of plasma by standard spectrophotometric enzymatic techniques which are based on the reduction of pyruvate by lactate dehydrogenase (28). The method measures NADH disappearance with time of incubation at 37° C. The activities are expressed as mm/L/min. Two different amounts of plasma were used in each assay to assure measurement of the maximum rate.

OVCAR-3 xenograft tumors = experiment: OVCAR-3 xenograft tumor animal model, tumor growth; type: in vivo, mouse; settings: 10 mg/kg/day by gavage, 5 days/week, 4 weeks; t-test on day 29
Method: Groups of 5 mice bearing OVCAR-3 xenografted tumors were gavaged daily with the indicated drugs in sesame oil (▪ closed square) or with sesame oil alone (∘ open circle). Tumor volumes were measured in 3 dimensions with calipers weekly. Each data point represents the average and standard error of the tumor volumes on the indicated treatment day relative to the tumor volume on day zero. Nu/nu mice were injected subcutaneously with one million OVCAR-3 cells and arbitrarily divided into five groups of six mice each. After three weeks of tumor growth, the animals were gavaged with sesame oil, 10 mg/kg/day 4-HPR, or the indicated Het five times per week for four weeks and the tumors were measured once per week. The tumor sizes were averaged and divided by the average size for each group on the day that treatment was initiated (day 0).
The OVCAR-3 cultures were maintained in RPMI media supplemented with 10% fetal bovine serum. All animal experimentation described in this manuscript was conducted in accord with accepted standards of humane animal care. Twenty-five female NU/NU CD-1 female mice (Charles Rivers Laboratories) were housed in a laminar flow room under sterile conditions at 83-85° F. The mice were quarantined for one week prior to the beginning of the study and were allowed access to autoclaved food (Purina 5001 mouse/rat sterilizable diet, St. Louis, Mo.) and water ad libitum. OVCAR-3 cells in log phase growth were harvested by trypsinization, resuspended in RPMI culture medium, and centrifuged at 3,000 rpm for 10 min. The pellets were resuspended in RPMI culture medium at a concentration of 7×10^6 cells/ml before implantation into mice. Animals were injected with 3.5×10^6 cells into the right scapular region with a 24-gauge needle/1 cc tuberculin syringe. Twenty-four hours after tumor implantation, animals were randomized into 5 groups of 5 animals each.
The Hets SHet50, SHetA2 and SHetA4 were synthesized and their receptor specificity determined as previously described (17,19). The 4-HPR compound was a gift from R.W. Johnson Pharmaceutical Research Institute, Raritan, N.J. All retinoids were dissolved in super refined sesame oil (Croda, Inc., Parsippany, N.J.) and stored at −80° C. Since the retinoids are light sensitive, all manipulations involving retinoids were performed under subdued lighting. […] Tumors were measured with calipers weekly, and tumor volumes were calculated using the formula: volume=length×width×height. Tumor growth was determined by the dividing the volume of the tumor at each weekly measurement by the volume on the first day of treatment. Animal weights and clinical signs of overall health status and cutaneous toxicities were recorded weekly.

a variety of cell lines = settings: cited from earlier work
[4] = test system: SiHa human cervical cell line; experiment: In vitro cytotoxicity (SRB growth inhibition) assay, SiHa; type: cell-based; design: dose or concentration left out as unconfirmed; settings: 72 h
Method: (§1) The SHetA2, SHetA3, SHetA4, SHet50 and 9-cis-RA compounds were evaluated in 4 cervical carcinoma cell lines. The SiHa, CC-1 and C33a human cervical cell lines were maintained in Minimal Essential Media (MEM) containing Earle's salts and L-glutamine supplemented with nonessential amino acids, 1% sodium pyruvate, 10% fetal bovine serum (FBS) and antibiotic/antimycotic. The HT-3 cervical carcinoma cell line was cultured in McCoy's 5a medium supplemented with 10% FBS and antibiotic/antimycotic. Cells were inoculated into 96 well microtiter plates at densities of 1000 cells/well and incubated for 24 h prior to addition of drugs. Drugs were dissolved in dimethyl sulfoxide (DMSO) and diluted in complete medium, prior to addition to triplicate culture wells to achieve final concentrations of […]. Following drug addition, the plates were incubated for 72 h. The assay was terminated by the addition of cold TCA and the cells were stained with 0.4% sulforhodamine B (SRB) in 1% acetic acid. Bound stain was subsequently solubilized with 10 mM trizma base, and the absorbance was read on an automated plate reader at a wavelength of 560 nm. Growth inhibition was determined by dividing the average Optical Density (OD) of the triplicated treated cultures by the average OD of the triplicate control cultures treated with DMSO solvent only. This ratio was converted into a percentage by multiplying by 100. The potency (concentration required to induce half of the maximal activity—GI50) were derived from dose-response graphs generated with results from 3 to 5 individual experiments using GraphPad Software.

[5] = test system: dorsal skin of female Skh hairless mice; experiment: Topical irritancy; type: in vivo; settings: mouse, in vivo
Method: Female Skh hairless mice, 6-8 weeks old, were treated topically on the dorsal skin for 4 days over a 2-log concentration dose range with various compounds. Retinoic acid receptor-Hets were evaluated in A, while retinoic acid receptor-independent Flex-Hets were evaluated in B. Daily flaking and abrasion scores were combined to calculate a single cutaneous toxicity score for each mouse. Each treatment group consisted of 4 mice, and group averages were used to plot cutaneous toxicity against doses of the compounds.
Topical irritancy was evaluated according to published procedures (29). Briefly, female Skh hairless mice, 6-8 weeks old, were treated topically on the dorsal skin for 4 days over a 2-log concentration dose range with various compounds. Daily flaking and abrasion scores were combined to calculate a single cutaneous toxicity score for each mouse. Each treatment group consists of 4 mice, and group averages are used to plot cutaneous toxicity against dose of the retinoid compound.

[6] = test system: HT-3 cervical carcinoma cell line; experiment: In vitro cytotoxicity (SRB growth inhibition) assay, HT-3; type: cell-based, human; design: dose or concentration left out as unconfirmed; settings: 72 h
Method: as §1

[7] = test system: human polycystic kidney disease cells; experiment: 3-D gel culture model of polycystic kidney disease; type: cell-based; settings: 4μM, 3 weeks
Method: FIG. 21. Effects of Flex-Hets on formation of cysts in cultured polycystic kidney disease cells. A primary culture of polycystic kidney cells were grown inside a mixture of collagen I and matrigel and treated with prostaglandin E2 to induce cyst formation. Parallel cultures were treated with 10 micromolar SHetA3 and SHetA4.
The 3-D model of the PKD was developed as described here. Single-cell suspensions of the PCKD cell lines was re-suspended in a 4° C. solution mixture containing rat tail collagen I (Collaborative Biomedical Products, Bedford, Mass.), matrigel (Becton Dickinson) and MEM. The suspension was poured into Falcon cell culture inserts with transparent membranes containing 0.4 μm pores (Becton Dickinson, Franklin Lakes, N.J.) and placed at 37° C. Treatment of cultures was initiated after 1 day of growth and replenished with medium once in every two days. Drugs (Flex-Hets at 4 μM Conc.) and hormones (PGE2 at 25 ng/ml) were administered into the medium surrounding the insert. Untreated control cultures were grown in the same conditions as that of the treated cultures. Drug treatment was carried out for 3 weeks before their effects on growth and inhibition were evaluated.

[8] = test system: CC-1 human cervical cell line; experiment: In vitro cytotoxicity (SRB growth inhibition) assay, CC-1; type: cell-based; design: dose or concentration left out as unconfirmed; settings: 72 h
Method: as §1

[9] = test system: C33a human cervical cell line; experiment: In vitro cytotoxicity (SRB growth inhibition) assay, C33a; type: cell-based; design: dose or concentration left out as unconfirmed; settings: 72 h
Method: as §1

[10] = biological assays of efficacy; cited from earlier work

CC1=C(/C=C/C(C)=C/C=C/C(C)=C/C(=O)Nc2ccc(O)cc2)C(C)(C)CCC1 [4-HPR, N-(4-hydroxyphenyl) retinamide]
induction of apoptosis (TUNEL) in organotypic cultures [1]: Apoptosis was induced | ovarian cancers developed [2]: statistically significantly fewer ovarian cancers | ALT Activity [3]: 149.7 ± 140.9 mm/liter/min | growth of xenograft tumors versus sesame oil control (OVCAR-3 xenograft tumors): significantly inhibited the growth; also recorded: significantly less | concentration inducing differentiation (receptor-dependent) (a variety of cell lines): 1 µM

CCOC(=O)c1ccc(NC(=O)Nc2ccc3c(c2)C(C)(C)CC(C)(C)S3)cc1 [SHetA4]
induction of apoptosis (TUNEL) in organotypic cultures [1]: Apoptosis was induced | Efficacy: percent growth inhibition relative to the untreated control [4]: 67% | topical irritancy (cutaneous toxicity score) [5]: did not induce topical irritancy | Efficacy: percent growth inhibition relative to the untreated control [6]: 76% | formation of branched tubular structures (differentiated phenotype) [7]: induced the formation of several branched tubular structures | cyst formation ([7]; PGE2 at 25 ng/ml): completely eliminated cyst formation | Efficacy: percent growth inhibition relative to the untreated control [8]: 59% | Efficacy: percent growth inhibition relative to the untreated control [9]: 85% | growth of xenograft tumors versus sesame oil control (OVCAR-3 xenograft tumors): significantly less

C/C(=C\c1ccc(C(=O)O)cc1)c1ccc2c(c1)C(C)(C)CCC2(C)C [TTNPB]
potency relative to RA [10]: 10 fold
